Experimental data from the supplement of paper PMC5662764.
± gives the standard deviation of the averaged measurements.

Tests used:
Assay in all cases: normalised growth rate inhibition (GR value) relative to DMSO control (GR (1 = untreated growth, 0 = cytostasis, <0 = cytotoxic)); higher = less growth inhibition
Conditions in all cases: 72 h
[1] = tested on: BT20
Protocol: (§1)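 Breast cancer cell lines (BT-20, Hs 578T, MCF 10A, MCF7, MDA-MB-231, SK-BR-3) were plated in 384-well plates and treated 24 h later with drugs at six concentrations (0.04-10 µM). Viable cells were counted by Hoechst/dead-cell-stain imaging at 0 and 72 h. Counts were normalised to DMSO controls on the same plate to give the relative cell count and the growth-rate inhibition (GR) value; technical plate triplicates were averaged for each biological replicate.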

[2] = tested on: HS578T
Protocol: as §1

[3] = tested on: MCF10A
Protocol: as §1

[4] = tested on: MCF7
Protocol: as §1

[5] = tested on: MDAMB231
Protocol: as §1

[6] = tested on: SKBR3
Protocol: as §1

Structure (SMILES): Nc1ccc(C(=O)Nc2cccc(-c3nc(N4CCOCC4)c4oc5ncccc5c4n3)c2)cn1
- normalised growth rate inhibition ([1]; 0.04 µM): 1.06 ± 0.025
- normalised growth rate inhibition ([1]; 0.12 µM): 0.999 ± 0.032
- normalised growth rate inhibition ([1]; 0.37 µM): 0.938 ± 0.029
- normalised growth rate inhibition ([1]; 1.11 µM): 0.746 ± 0.053
- normalised growth rate inhibition ([1]; 3.33 µM): 0.577 ± 0.07
- normalised growth rate inhibition ([1]; 10 µM): 0.0483 ± 0.094
- normalised growth rate inhibition ([2]; 0.04 µM): 1.02 ± 0.029
- normalised growth rate inhibition ([2]; 0.12 µM): 0.984 ± 0.013
- normalised growth rate inhibition ([2]; 0.37 µM): 0.972 ± 0.033
- normalised growth rate inhibition ([2]; 1.11 µM): 0.865 ± 0.022
- normalised growth rate inhibition ([2]; 3.33 µM): 0.668 ± 0.029
- normalised growth rate inhibition ([2]; 10 µM): 0.13 ± 0.053
- normalised growth rate inhibition ([3]; 0.04 µM): 1.015 ± 0.0057
- normalised growth rate inhibition ([3]; 0.12 µM): 0.989 ± 0.01
- normalised growth rate inhibition ([3]; 0.37 µM): 0.951 ± 0.022
- normalised growth rate inhibition ([3]; 1.11 µM): 0.824 ± 0.025
- normalised growth rate inhibition ([3]; 3.33 µM): 0.734 ± 0.051
- normalised growth rate inhibition ([3]; 10 µM): 0.301 ± 0.043
- normalised growth rate inhibition ([4]; 0.04 µM): 1.06 ± 0.031
- normalised growth rate inhibition ([4]; 0.12 µM): 0.963 ± 0.034
- normalised growth rate inhibition ([4]; 0.37 µM): 0.856 ± 0.046
- normalised growth rate inhibition ([4]; 1.11 µM): 0.606 ± 0.041
- normalised growth rate inhibition ([4]; 3.33 µM): 0.37 ± 0.12
- normalised growth rate inhibition ([4]; 10 µM): -0.043 ± 0.35
- normalised growth rate inhibition ([5]; 0.04 µM): 1.04 ± 0.032
- normalised growth rate inhibition ([5]; 0.12 µM): 0.954 ± 0.058
- normalised growth rate inhibition ([5]; 0.37 µM): 0.869 ± 0.082
- normalised growth rate inhibition ([5]; 1.11 µM): 0.747 ± 0.094
- normalised growth rate inhibition ([5]; 3.33 µM): 0.657 ± 0.14
- normalised growth rate inhibition ([5]; 10 µM): 0.0924 ± 0.24
- normalised growth rate inhibition ([6]; 0.04 µM): 1.12 ± 0.043
- normalised growth rate inhibition ([6]; 0.12 µM): 1.03 ± 0.053
- normalised growth rate inhibition ([6]; 0.37 µM): 1.03 ± 0.075
- normalised growth rate inhibition ([6]; 1.11 µM): 0.89 ± 0.072
- normalised growth rate inhibition ([6]; 3.33 µM): 0.769 ± 0.052
- normalised growth rate inhibition ([6]; 10 µM): 0.17 ± 0.047

Structure (SMILES): O=C(NOCC1CC1)c1ccc(F)c(F)c1Nc1ccc(I)cc1Cl
- normalised growth rate inhibition ([1]; 0.04 µM): 1.05 ± 0.03
- normalised growth rate inhibition ([1]; 0.12 µM): 1.032 ± 0.009
- normalised growth rate inhibition ([1]; 0.37 µM): 1.01 ± 0.043
- normalised growth rate inhibition ([1]; 1.11 µM): 0.9868 ± 0.0023
- normalised growth rate inhibition ([1]; 3.33 µM): 0.95 ± 0.018
- normalised growth rate inhibition ([1]; 10 µM): 0.289 ± 0.18
- normalised growth rate inhibition ([2]; 0.04 µM): 0.783 ± 0.081
- normalised growth rate inhibition ([2]; 0.12 µM): 0.686 ± 0.097
- normalised growth rate inhibition ([2]; 0.37 µM): 0.605 ± 0.12
- normalised growth rate inhibition ([2]; 1.11 µM): 0.528 ± 0.12
- normalised growth rate inhibition ([2]; 3.33 µM): 0.476 ± 0.094
- normalised growth rate inhibition ([2]; 10 µM): 0.267 ± 0.067
- normalised growth rate inhibition ([3]; 0.04 µM): 0.661 ± 0.016
- normalised growth rate inhibition ([3]; 0.12 µM): 0.547 ± 0.058
- normalised growth rate inhibition ([3]; 0.37 µM): 0.454 ± 0.059
- normalised growth rate inhibition ([3]; 1.11 µM): 0.371 ± 0.079
- normalised growth rate inhibition ([3]; 3.33 µM): 0.279 ± 0.068
- normalised growth rate inhibition ([3]; 10 µM): 0.165 ± 0.07
- normalised growth rate inhibition ([4]; 0.04 µM): 0.915 ± 0.15
- normalised growth rate inhibition ([4]; 0.12 µM): 0.81 ± 0.13
- normalised growth rate inhibition ([4]; 0.37 µM): 0.718 ± 0.059
- normalised growth rate inhibition ([4]; 1.11 µM): 0.646 ± 0.074
- normalised growth rate inhibition ([4]; 3.33 µM): 0.574 ± 0.034
- normalised growth rate inhibition ([4]; 10 µM): 0.344 ± 0.037
- normalised growth rate inhibition ([5]; 0.04 µM): 0.992 ± 0.058
- normalised growth rate inhibition ([5]; 0.12 µM): 0.8538 ± 0.0075
- normalised growth rate inhibition ([5]; 0.37 µM): 0.77 ± 0.023
- normalised growth rate inhibition ([5]; 1.11 µM): 0.63 ± 0.057
- normalised growth rate inhibition ([5]; 3.33 µM): 0.513 ± 0.05
- normalised growth rate inhibition ([5]; 10 µM): 0.181 ± 0.087
- normalised growth rate inhibition ([6]; 0.04 µM): 1.08 ± 0.054
- normalised growth rate inhibition ([6]; 0.12 µM): 1.05 ± 0.048
- normalised growth rate inhibition ([6]; 0.37 µM): 1.04 ± 0.023
- normalised growth rate inhibition ([6]; 1.11 µM): 1.02 ± 0.031
- normalised growth rate inhibition ([6]; 3.33 µM): 0.972 ± 0.077
- normalised growth rate inhibition ([6]; 10 µM): 0.611 ± 0.061
